In US9302999B2, “Substituted triazoles as herbicides” (E. I. DU PONT DE NEMOURS AND COMPANY, priority 2012, dated 2016):

Tests used:
Type in all cases: in vivo
[1] = test system: foxtail, green (green foxtail, Setaria viridis); assay: Test C pre-/postemergence: foxtail, green; conditions: Postemergence
Text: (§1) Seeds of plant species selected from blackgrass (Alopecurus myosuroides), bromegrass, downy (downy bromegrass, Bromus tectorum), foxtail, green (green foxtail, Setaria viridis), ryegrass, Italian (Italian ryegrass, Lolium multiflorum), winter wheat (Triticum aestivum), wild oat (Avena fatua), galium (catchweed bedstraw, Galium aparine), bermudagrass (Cynodon dactylon), surinam grass (Brachiaria decumbens), cocklebur (common cocklebur, Xanthium strumarium), corn (Zea mays), large crabgrass (Digitaria sanguinalis), woolly cupgrass (Eriochloa villosa), foxtail, giant (giant foxtail, Setaria faberii), goosegrass (Eleusine indica), johnsongrass (Sorghum halepense), kochia (Kochia scoparia), lambsquarters (Chenopodium album), morningglory (Ipomoea coccinea), nightshade (eastern black nightshade, Solanum ptycanthum), nutsedge, yellow (yellow nutsedge, Cyperus esculentus), pigweed (Amaranthus retroflexus), ragweed (common ragweed, Ambrosia elation), soybean (Glycine max), common (oilseed) sunflower (Helianthus annuus), Russian thistle (Salsola kali) and velvetleaf (Abutilon theophrasti) were planted into a blend of loam soil and sand and treated preemergence with test chemicals formulated in a non-phytotoxic solvent mixture which included a surfactant.
(§2) At the same time, plants selected from these crop and weed species and also barley (winter barley, Hordeum vulgare), canarygrass (Phalaris minor), chickweed (common chickweed, Stellaria media) windgrass (Apera spica-venti) and deadnettle (henbit deadnettle, Lamium amplexicaule) were planted in pots containing Redi-Earth® planting medium (Scotts Company, 14111 Scottslawn Road, Marysville, Ohio 43041) comprising spaghnum peat moss, vermiculite, wetting agent and starter nutrients and treated with postemergence applications of test chemicals formulated in the same manner. Plants ranged in height from 2 to 18 cm (1- to 4-leaf stage) for postemergence treatments.
(§3) Treated plants and controls were maintained in a greenhouse for 13 to 15 days, after which time all species were compared to controls and visually evaluated. Plant response ratings, summarized in Table C, are based on a scale of 0 to 100 where 0 is no effect and 100 is complete control. A dash (-) response means no test result.

[2] = test system: bermudagrass (Cynodon dactylon); assay: Test C pre-/postemergence: bermudagrass; conditions: Postemergence
Text: as §1, §2, §3

[3] = test system: surinam grass (Brachiaria decumbens); assay: Test C pre-/postemergence: surinam grass; conditions: Postemergence
Text: as §1, §2, §3

[4] = test system: cocklebur (common cocklebur, Xanthium strumarium); assay: Test C pre-/postemergence: cocklebur; conditions: Postemergence
Text: as §1, §2, §3

[5] = test system: woolly cupgrass (Eriochloa villosa); assay: Test C pre-/postemergence: woolly cupgrass; conditions: Postemergence
Text: as §1, §2, §3

[6] = test system: goosegrass (Eleusine indica); assay: Test C pre-/postemergence: goosegrass; conditions: Postemergence
Text: as §1, §2, §3

[7] = test system: barley (winter barley, Hordeum vulgare); assay: Test C postemergence: barley
Text: as §2, §3

[8] = test system: canarygrass (Phalaris minor); assay: Test C postemergence: canarygrass
Text: as §2, §3

[9] = test system: windgrass (Apera spica-venti); assay: Test C postemergence: windgrass
Text: as §2, §3

[10] = 31 g ai/ha, scale 0 to 100 (0 no effect, 100 complete control)
[11] = 62 g ai/ha, scale 0 to 100 (0 no effect, 100 complete control)
[12] = 125 g ai/ha, scale 0 to 100, 0 no effect, 100 complete control

SMILES | Plant response rating, Foxtail, Green [1, 10] | Plant response rating, Foxtail, Green [1, 11] | Plant response rating, Foxtail, Green [1, 12] | Plant response rating, Foxtail, Green ([1]; 250 g ai/ha, scale 0 to 100) | Plant response rating, Bermudagrass [2, 10] | Plant response rating, Bermudagrass [2, 12] | Plant response rating, Bermudagrass ([2]; 250 g ai/ha, scale 0 to 100) | Plant response rating, Surinam Grass [3, 10] | Plant response rating, Surinam Grass [3, 11] | Plant response rating, Surinam Grass [3, 12] | Plant response rating, Surinam Grass ([3]; 250 g ai/ha, scale 0 to 100) | Plant response rating, Cocklebur [4, 10] | Plant response rating, Cupgrass, Woolly [5, 10] | Plant response rating, Cupgrass, Woolly [5, 11] | Plant response rating, Cupgrass, Woolly [5, 12] | Plant response rating, Cupgrass, Woolly ([5]; 250 g ai/ha, scale 0 to 100) | Plant response rating, Goosegrass [6, 10] | Plant response rating, Goosegrass [6, 11] | Plant response rating, Goosegrass [6, 12] | Plant response rating, Goosegrass ([6]; 250 g ai/ha, scale 0 to 100) | other results
Cc1nn(-c2ccnc(Cl)c2)nc1Cc1ccnc(C(F)(F)F)c1 [Compound 141] | 100 | 100 | 100 | 100 | 15 | 55 | 95 | 15 | 15 | 30 | 30 | 5 | 15 | 20 | 30 | 45 | 35 | 40 | 50 | 60 | Plant response rating, Barley [7, 10]: 5; Plant response rating, Barley [7, 11]: 10; Plant response rating, Barley [7, 12]: 15; Plant response rating, Barley ([7]; 250 g ai/ha, scale 0 to 100): 30; Plant response rating, Canarygrass [8, 10]: 20; Plant response rating, Canarygrass [8, 11]: 25; Plant response rating, Canarygrass [8, 12]: 50; Plant response rating, Canarygrass ([8]; 250 g ai/ha, scale 0 to 100): 80; Plant response rating, Windgrass [9, 10]: 50; Plant response rating, Windgrass [9, 11]: 50; Plant response rating, Windgrass [9, 12]: 55; Plant response rating, Windgrass ([9]; 250 g ai/ha, scale 0 to 100): 60
FC(F)(F)c1ccc(-n2nc(Cl)c(Cc3ccnc(C(F)(F)F)c3)n2)cc1 [Compound 28] | 30 | 70 | 70 | 85 | 10 | 20 | 25 | 5 | 10 | 15 | 15 | 10 | 20 | 30 | 35 | 40 | 20 | 20 | 25 | 45 | Plant response rating, Bermudagrass [2, 11]: 15; Plant response rating, Cocklebur [4, 11]: 15; Plant response rating, Cocklebur [4, 12]: 20; Plant response rating, Cocklebur ([4]; 250 g ai/ha, scale 0 to 100): 25; Plant response rating, Barley [7, 10]: 10; Plant response rating, Barley [7, 11]: 15; Plant response rating, Barley [7, 12]: 20; Plant response rating, Barley ([7]; 250 g ai/ha, scale 0 to 100): 35; Plant response rating, Canarygrass [8, 10]: 30; Plant response rating, Canarygrass [8, 11]: 50; Plant response rating, Canarygrass [8, 12]: 60; Plant response rating, Canarygrass ([8]; 250 g ai/ha, scale 0 to 100): 90; Plant response rating, Windgrass [9, 10]: 30; Plant response rating, Windgrass [9, 11]: 45; Plant response rating, Windgrass [9, 12]: 50; Plant response rating, Windgrass ([9]; 250 g ai/ha, scale 0 to 100): 50
